Values joined by “and” are separate entries in the source; they are usually repeats but may differ in a detail not shown here. Equal entries are not always repeated. Oligonucleotides are written 5' to 3', each unit as a sugar letter and its base; * is a phosphorothioate linkage, no mark a phosphodiester; rarer units and linkages stand in square brackets, end groups in braces. Plain capitals give the bases only. e = 2'-O-(2-methoxyethyl) (MOE); k = constrained ethyl (cEt); [5mC] = 5-methylcytosine; d = 2'-deoxy (DNA)

The test system of data set [1] is AR mRNA. Kind of data set: Antisense inhibition of human AR in HuVEC cells, single concentration (electroporation, qRT-PCR RTS3559). The format is cell-based. Here is the method:
Antisense oligonucleotides were designed targeting an AR nucleic acid and were tested for their effects on AR mRNA in vitro. The antisense oligonucleotides were tested in a series of experiments that had similar culture conditions. […] Human primer probe set RTS3559 (forward sequence [NT], designated herein as SEQ ID NO: 9; reverse sequence [NT], designated herein as SEQ ID NO: 10; probe sequence [NT], designated herein as SEQ ID NO: 11) was used to measure mRNA levels. AR mRNA levels were adjusted according to total RNA content, as measured by RIBOGREEN®. […] A total of 155 oligonucleotides were tested. Additional antisense oligonucleotides were designed targeting an AR nucleic acid and were tested for their effects on AR mRNA in vitro. […] Human primer probe set RTS3559 was used to measure mRNA levels. AR mRNA levels were adjusted according to total RNA content, as measured by RIBOGREEN®. […] A total of 82 oligonucleotides were tested. Additional antisense oligonucleotides were designed targeting an AR nucleic acid and were tested for their effects on AR mRNA in vitro. […] Human primer probe set RTS3559 was used to measure mRNA levels. AR mRNA levels were adjusted according to total RNA content, as measured by RIBOGREEN®. […] A total of 40 oligonucleotides were tested. Additional antisense oligonucleotides were designed targeting an AR nucleic acid and were tested for their effects on AR mRNA in vitro. […] Human primer probe set RTS3559 was used to measure mRNA levels. AR mRNA levels were adjusted according to total RNA content, as measured by RIBOGREEN®. […] A total of 75 oligonucleotides were tested. Additional antisense oligonucleotides were designed targeting an AR nucleic acid and were tested for their effects on AR mRNA in vitro. […] Human primer probe set RTS3559 was used to measure mRNA levels. AR mRNA levels were adjusted according to total RNA content, as measured by RIBOGREEN®. […] A total of 616 oligonucleotides were tested. Additional antisense oligonucleotides were designed targeting an AR nucleic acid and were tested for their effects on AR mRNA in vitro. […] Human primer probe set RTS3559 was used to measure mRNA levels. AR mRNA levels were adjusted according to total RNA content, as measured by RIBOGREEN®. […] A total of 385 oligonucleotides were tested.
A general note: Real-time PCR tracks product formation cycle by cycle.

The test system of data set [2] is AR mRNA. Kind of data set: Dose-dependent antisense inhibition of human AR in HuVEC cells (electroporation, qRT-PCR RTS3559, IC50). It counts as cell-based. The note with it: HuVEC. The method, then:
(§1) After a treatment period of approximately 16 hours, RNA was isolated from the cells and AR mRNA levels were measured by quantitative real-time PCR. Human AR primer probe set RTS3559 was used to measure mRNA levels. AR mRNA levels were adjusted according to total RNA content, as measured by RIBOGREEN®. […] The antisense oligonucleotides were tested in a series of experiments that had similar culture conditions.
as §1, §1, §1, §1
(§2) After a treatment period of approximately 16 hours, RNA was isolated from the cells and AR mRNA levels were measured by quantitative real-time PCR. Human AR primer probe set RTS3559 was used to measure mRNA levels. AR mRNA levels were adjusted according to total RNA content, as measured by RIBOGREEN®.
as §2

Where [3] appears, read: Table 21, 500 nM oligonucleotide, electroporation, approximately 24 hours, relative to untreated control.
Setting [4] is: Table 34, electroporation, approximately 16 hours.
The mark [5] stands for this setting: Table 31, electroporation, approximately 16 hours.

As usually defined, the % inhibition is the drop in the measured response relative to a control, in per cent. Broadly, the IC50 is the concentration that inhibits the measured activity by half. Low readings indicate inhibition by little substance, high ones a need for much substance. On to “583922 (kA*kG*kT*dT*dG*dT*dA*dG*dT*dA*dG*dT*d[5mC]*kG*k[5mC]*kG; antisense) [compound 583922]”, for which the “% inhibition” value in the data set with AR mRNA [1] (setting [3]) is 37%. In the data set on AR mRNA [2] (setting [4]), the “percent inhibition of AR, 46.9 nM” value was determined as 16%; the “percent inhibition of AR, 187.5 nM” value was 43%; the “percent inhibition of AR, 750.0 nM” value amounted to 76%; the “percent inhibition of AR, 3000.0 nM” value is given as 92%. The IC50 with AR mRNA [2] (setting [4]) turned out to be 230 nM.

For the substance “583864 (k[5mC]*kA*kG*dT*dG*d[5mC]*dT*d[5mC]*dT*dT*dG*d[5mC]*d[5mC]*kT*kG*k[5mC]; antisense) [compound 583864]”, the “% inhibition” value in the data set with AR mRNA [1] (Table 20, 500 nM oligonucleotide, electroporation, approximately 24 hours, relative to untreated control) is listed as 46%. Moreover, the “percent inhibition of AR, 187.5 nM” value in the data set on AR mRNA [2] (Table 32, electroporation, approximately 16 hours, 0.1875 µM) is 49% and 47%. The “percent inhibition of AR, 750.0 nM” value in the data set on AR mRNA [2] (Table 32, electroporation, approximately 16 hours, 0.75 µM) is 72% and 62%. Moreover, in the data set on AR mRNA [2] (Table 32, electroporation, approximately 16 hours), the “percent inhibition of AR, 3000.0 nM” value is listed as 85%.

For the substance “549388 (kT*k[5mC]*k[5mC]*d[5mC]*dT*dT*d[5mC]*dA*dG*d[5mC]*dG*dG*d[5mC]*kT*k[5mC]*kT; antisense) [compound 549388]”, the “% inhibition” value in the data set on AR mRNA [1] (500 nM ASO, electroporation, ~24 h, Table 1) is 88%. Moreover, the “percent inhibition of AR” value with AR mRNA [2] (55.6 nM, ~16 h, Table 3) was found to be 15%; in the data set on AR mRNA [2] (166.7 nM, ~16 h, Table 3) it was 42%; in the data set on AR mRNA [2] (500.0 nM, ~16 h, Table 3), 36%; in the data set with AR mRNA [2] (1500.0 nM, ~16 h, Table 3) it was 86%. The same substance gave an IC50 with AR mRNA [2] (~16 h, Table 3) of 428 nM.

With “569229 (antisense eG*eT*kT*kG*kA*dT*dT*dT*dA*dA*dT*dG*kG*kT*kT*eG) [compound 569229]”, the “% inhibition” value in the data set with AR mRNA [1] (1,000 nM ASO, ~24 h, Table 13) was 57%. The “percent inhibition of AR” value turned out to be 16% in the data set with AR mRNA [2] (31.25 nM, ~16 h, Table 14); 14% in the data set on AR mRNA [2] (62.5 nM, ~16 h, Table 14); 36% in the data set with AR mRNA [2] (125.0 nM, ~16 h, Table 14); 74% in the data set on AR mRNA [2] (500.0 nM, ~16 h, Table 14); 84% with AR mRNA [2] (1000.0 nM, ~16 h, Table 14). For the same substance, the midpoint of inhibition in the data set with AR mRNA [2] (~16 h, Table 14), the IC50, lay at 220 nM.

Regarding “583731 (antisense k[5mC]*kG*k[5mC]*dG*d[5mC]*dA*d[5mC]*dG*d[5mC]*dT*d[5mC]*dT*dG*kG*kA*kA) [compound 583731]”, the “% inhibition” value with AR mRNA [1] (500 nM ASO, ~24 h, Table 18) is given as 34%. In addition, in the data set on AR mRNA [2] (setting [5]), the “percent inhibition of AR, 46.9 nM” value was 18%; the “percent inhibition of AR, 187.5 nM” value came to 24%; the “percent inhibition of AR, 750.0 nM” value is reported as 47%; the “percent inhibition of AR, 3000.0 nM” value is recorded as 58%. In the data set on AR mRNA [2] (setting [5]), 1310 nM corresponded to half-maximal inhibition (IC50).

Consider “583932 (kT*k[5mC]*kT*d[5mC]*d[5mC]*dA*dG*d[5mC]*dT*dT*dG*dA*dT*kG*k[5mC]*kG; antisense) [compound 583932]”, for which the “% inhibition” value with AR mRNA [1] (setting [3]) is reported as 39%. For the same substance, in the data set on AR mRNA [2] (setting [4]), the “percent inhibition of AR, 46.9 nM” value was found to be 9%; the “percent inhibition of AR, 187.5 nM” value came to 35%; the “percent inhibition of AR, 750.0 nM” value worked out at 64%; the “percent inhibition of AR, 3000.0 nM” value was 81%. The IC50 with AR mRNA [2] (setting [4]) worked out at 380 nM.

For the origin of these results see patent USRE48461E1, “Modulation of androgen receptor expression” (Ionis Pharmaceuticals, Inc., priority 2012, dated 2021).
